{
  "source": "patent US8889731B2",
  "about": "“Compounds, compositions and methods for repelling blood-feeding arthropods and deterring their landing and feeding” (Contech Enterprises Inc., priority 2007, dated 2014)",
  "system": "Anopheles gambiae",
  "assay": "Arm-in-cage repellent/deterrent bioassay on exposed human forearm (modified WHO protocol), Anopheles gambiae",
  "format": "in vivo",
  "protocol": "Candidate repellents and deterrents were bioassayed according to a modified protocol from the World Health Organization (1996). At least 1 hour prior to each bioassay, 75 host-seeking non blood-fed, nulliparous, 5- to 8-day-old female Aedes aegypti, Anopheles gambiae or Culex quinquefasciatus were placed into a wood-framed cage (26.5 cm on each side and 42.5 cm high) with a wooden floor, screened mesh sides and top, and a clear acrylic front fitted with a cotton stockinette sleeve (10 cm diameter). The test subject's arm was covered with an elbow-length polyethylene glove with an excised patch (16.6 cm long, 6 cm wide) to expose the ventral forearm of the test subject. Candidate deterrents were formulated in mineral (paraffin) oil and applied to the exposed forearm 5 min prior to inserting the arm into the cage. The inserted arm remained in the cage for 3 min every 30 min. Prior to each 3-min bioassay period, the hand of the untreated arm was inserted into the cage to ascertain that it received 10 bites within 30 sec as an indication of “biting pressure”.\nThe bioassay was terminated when the treated arm received ≧2 bites in one 3-min bioassay period or one bite in each of two consecutive bioassay periods. The time elapsed from experiment initiation to first bite was recorded as deterrent failure or complete protection time.\nN,N-diethyl-m-toluamide formulated in ethanol at a corresponding dose served as a positive control, and mineral oil by itself served as a negative control. On each day, only one candidate compound was tested, ensuring that any residual material in the chamber had disappeared before the next bioassay.\nTo determine the repellence and deterrence of 8-allylsulfanyloctan-1-ol against Anopheles gambiae, a 2%, 5% or a 10% formulation of 8-allylsulfanyloctan-1-ol in mineral oil was applied in Experiments 5-7 at a dose of 1.5 mg per cm^2 to the skin of the test person, and was bioassayed according to the protocol described under EXAMPLE 2. In Experiment 8, mineral oil by itself served as a negative control and was tested at the same dose (1.5 mg per cm^2) as in Experiments 5-7. Each of Experiments 5-8 was replicated 4 times.\nTo be able to compare the repellence and deterrence caused N,N-diethyl-m-toluamide (DEET), and by 8-allylsulfanyloctan-1-ol, Experiment 13 tested a 2% formulation of N,N-diethyl-m-toluamide in ethanol (the best formulant for this compound) for protection from bites by Anopheles gambiae. A dose of 1.5 mg per cm^2 was applied to the skin of the test person and bioassayed according to the protocol described under EXAMPLE 2.\nTo compare the repellence and deterrence against Anopheles gambiae caused by 8-allyl-sulfanyloctan-1-ol as a single active ingredient and by 8-allylsulfanyloctan-1-ol in combination with vanillin as a second active ingredient, we tested a 6.7% emulsion of vanillin (Experiment 18), a 6.7-% emulsion of 8-allylsulfanyl-octan-1-ol (Experiment 19) and a 13.4% emulsion of 8-allylsulfanyloctan-1-ol plus vanillin (1:1 ratio) (Experiment 20). 8-Allylsulfanyloctan-1-ol and vanillin were formulated in Emulsion No. 1 (see EXAMPLE 9). In each of Experiments 18-20, test stimuli were applied at a dose of 1.5 mg per cm^2 to the skin of the test person, and were bioassayed according to the protocol described under EXAMPLE 2. In Experiment 21, Emulsion No. 1 served as a positive control and was tested at the same dose (1.5 mg per cm^2) as in experiments 18-20. Each of Experiments 18-21 was replicated three times.",
  "data": [
    {"molecule": "C=CCSCCCCCCCCO", "note": "[Compound 24, 8-allylsulfanyloctan-1-ol]", "values": [
      {"measurement": "protection from bites, average duration", "setting": "2% formulation in mineral oil, 1.5 mg per cm^2, Experiment 5", "result": 297, "unit": "min"},
      {"measurement": "protection from bites, average duration", "setting": "5% formulation in mineral oil, 1.5 mg per cm^2, Experiment 6", "result": 314, "unit": "min"},
      {"measurement": "protection from bites, average duration", "setting": "6.7% single active in Emulsion No. 1 (FIG. 8 legend: 2.0%), 1.5 mg per cm^2, Experiments 18, 19", "result": 369, "unit": "min"},
      {"measurement": "protection from bites, average duration", "setting": "10% formulation in mineral oil, 1.5 mg per cm^2, Experiment 7", "result": 487, "unit": "min"}
    ]}
  ]
}
